Measured values from PMC4882222 (Journal of medicinal chemistry, 2016).
Read-outs that look alike come from different tables or passages of the source.

How the values were obtained:
HIV RT polymerase = HIV RT polymerase (Human immunodeficiency virus type 1 group M subtype B, UniProt P04585); assay: RT polymerase assay; type: biochemical, HIV-1
[1] = target: HIV RT-associated RNase H (Human immunodeficiency virus type 1 group M subtype B, UniProt P04585); type: biochemical, HIV-1
HIV integrase = HIV integrase (Human immunodeficiency virus type 1 group M subtype B, UniProt P04585); assay: HIV IN strand transfer assay; type: biochemical
[2] = RNH IC50 HTS-2, HTS-2 substrate, measures DNA 3' end directed cleavage
[3] = RNH IC50 HTS-3, HTS-3 substrate, measures RNA 5' end directed cleavage
[4] = RT RNase H IC50, Table 4, data with HTS-1 as substrate

O=C(O)c1c[nH]cc(O)c1=O [10a, 5-Hydroxy-4-oxo-1,4-dihydropyridine-3-carboxylic acid]
> 25 µM: IC50 (HIV RT polymerase) | IC50 (HIV RT polymerase; read-out: RT Pol IC50, Table 4) | IC50 [1, 2] | IC50 [1, 3] | IC50 [1, 4]
> 100 µM: IC50 (HIV integrase)
no inhibitory activity: RT Pol IC50 (HIV RT polymerase; Table 1, poly(rA)-oligo(dT)16, [3H]-TTP)

O=C(O)c1cn(-c2ccccc2)cc(O)c1=O [10b, 5-Hydroxy-4-oxo-1-phenyl-1,4-dihydropyridine-3-carboxylic acid]
> 25 µM: IC50 (HIV RT polymerase) | IC50 (HIV RT polymerase; read-out: RT Pol IC50, Table 4) | IC50 [1, 2] | IC50 [1, 3] | IC50 [1, 4]

O=C(O)c1cn(Cc2ccccc2)cc(O)c1=O [10c, 1-Benzyl-5-hydroxy-4-oxo-1,4-dihydropyridine-3-carboxylic acid]
> 25 µM: IC50 (HIV RT polymerase) | IC50 (HIV RT polymerase; read-out: RT Pol IC50, Table 4) | IC50 [1, 2] | IC50 [1, 3] | IC50 [1, 4]

O=C(O)c1cn(Cc2ccc(F)cc2)cc(O)c1=O [10d, 1-(4-Fluorobenzyl)-5-hydroxy-4-oxo-1,4-dihydropyridine-3-carboxylic acid]
> 25 µM: IC50 (HIV RT polymerase) | IC50 (HIV RT polymerase; read-out: RT Pol IC50, Table 4) | IC50 [1, 2] | IC50 [1, 3]

CC(c1ccc(F)cc1)n1cc(O)c(=O)c(C(=O)O)c1 (centres unmarked) [10e, 1-(1-(4-Fluorophenyl)ethyl)-5-hydroxy-4-oxo-1,4-dihydropyridine-3-carboxylic acid]
> 25 µM: IC50 (HIV RT polymerase) | IC50 (HIV RT polymerase; read-out: RT Pol IC50, Table 4) | IC50 [1, 2] | IC50 [1, 3]

Cc1cc(Cn2cc(O)c(=O)c(C(=O)O)c2)ccc1F [10f, 1-(4-Fluoro-3-methylbenzyl)-5-hydroxy-4-oxo-1,4-dihydropyridine-3-carboxylic acid]
> 100 µM: IC50 (HIV integrase)
> 25 µM: IC50 (HIV RT polymerase) | IC50 (HIV RT polymerase; read-out: RT Pol IC50, Table 4) | IC50 [1, 2] | IC50 [1, 3]

O=C(O)c1cn(Cc2ccc(F)cc2F)cc(O)c1=O [10g, 1-(2,4-Difluorobenzyl)-5-hydroxy-4-oxo-1,4-dihydropyridine-3-carboxylic acid]
> 25 µM: IC50 (HIV RT polymerase) | IC50 (HIV RT polymerase; read-out: RT Pol IC50, Table 4) | IC50 [1, 2] | IC50 [1, 3]
> 100 µM: IC50 (HIV integrase)

O=C(O)c1cn(Cc2ccc(Cl)c(Cl)c2)cc(O)c1=O [10i, 1-(3,4-Dichlorobenzyl)-5-hydroxy-4-oxo-1,4-dihydropyridine-3-carboxylic acid]
> 25 µM: IC50 (HIV RT polymerase) | IC50 (HIV RT polymerase; read-out: RT Pol IC50, Table 4) | IC50 [1, 2] | IC50 [1, 3]

O=C(O)c1cn(Cc2ccc(Cl)cc2Cl)cc(O)c1=O [10j, 1-(2,4-Dichlorobenzyl)-5-hydroxy-4-oxo-1,4-dihydropyridine-3-carboxylic acid]
> 25 µM: IC50 (HIV RT polymerase) | IC50 (HIV RT polymerase; read-out: RT Pol IC50, Table 4) | IC50 [1, 2] | IC50 [1, 3]

O=C(O)c1cn(Cc2ccc(F)c(Cl)c2)cc(O)c1=O [10k, 1-(3-Chloro-4-fluorobenzyl)-5-hydroxy-4-oxo-1,4-dihydropyridine-3-carboxylic acid]
> 25 µM: IC50 (HIV RT polymerase) | IC50 (HIV RT polymerase; read-out: RT Pol IC50, Table 4) | IC50 [1, 2] | IC50 [1, 3]

O=C(O)c1cn(Cc2ccc(Br)cc2)cc(O)c1=O [10l, 1-(4-Bromobenzyl)-5-hydroxy-4-oxo-1,4-dihydropyridine-3-carboxylic acid]
> 100 µM: IC50 (HIV integrase)
> 25 µM: IC50 (HIV RT polymerase) | IC50 (HIV RT polymerase; read-out: RT Pol IC50, Table 4) | IC50 [1, 2] | IC50 [1, 3] | IC50 [1, 4]

O=C(O)c1cn(Cc2ccncc2)cc(O)c1=O [10n, 5-Hydroxy-4-oxo-1-(pyridin-4-ylmethyl)-1,4-dihydropyridine-3-carboxylic acid]
> 25 µM: IC50 (HIV RT polymerase) | IC50 (HIV RT polymerase; read-out: RT Pol IC50, Table 4) | IC50 [1, 2] | IC50 [1, 3] | IC50 [1, 4]
> 100 µM: IC50 (HIV integrase)

CS(=O)(=O)c1ccc(Cn2cc(O)c(=O)c(C(=O)O)c2)cc1 [10o, 5-Hydroxy-1-(4-(methylsulfonyl)benzyl)-4-oxo-1,4-dihydropyridine-3-carboxylic acid]
> 25 µM: IC50 (HIV RT polymerase) | IC50 (HIV RT polymerase; read-out: RT Pol IC50, Table 4) | IC50 [1, 2] | IC50 [1, 3] | IC50 [1, 4]

O=C(O)c1ccc(Cn2cc(O)c(=O)c(C(=O)O)c2)cc1 [10p, 1-(4-Carboxybenzyl)-5-hydroxy-4-oxo-1,4-dihydropyridine-3-carboxylic acid]
> 25 µM: IC50 (HIV RT polymerase) | IC50 (HIV RT polymerase; read-out: RT Pol IC50, Table 4) | IC50 [1, 2] | IC50 [1, 3] | IC50 [1, 4]

NS(=O)(=O)c1ccc(-c2ccc(Cn3cc(O)c(=O)c(C(=O)O)c3)cc2)cc1 [10y, 5-Hydroxy-4-oxo-1-((4'-sulfamoyl-[1,1'-biphenyl]-4-yl)methyl)-1,4-dihydropyridine-3-carboxylic acid]
> 100 µM: IC50 (HIV integrase)

CCOC(=O)c1cn(Cc2ccc(F)cc2)cc(O)c1=O [compound 18, Ethyl-1-(4-fluorobenzyl)-5-hydroxy-4-oxo-1,4-dihydropyridine-3-carboxylate]
> 100 µM: IC50 (HIV integrase)
> 25 µM: IC50 (HIV RT polymerase) | IC50 (HIV RT polymerase; read-out: RT Pol IC50, Table 4) | IC50 [1, 2] | IC50 [1, 3] | IC50 [1, 4]

NC(=O)c1cn(Cc2ccc(F)cc2)cc(O)c1=O [compound 20, 1-(4-Fluorobenzyl)-5-hydroxy-4-oxo-1,4-dihydropyridine-3-carboxamide]
> 25 µM: IC50 (HIV RT polymerase) | IC50 (HIV RT polymerase; read-out: RT Pol IC50, Table 4) | IC50 [1, 2] | IC50 [1, 3]
